{"source": "patent US20100035941A1", "about": "“METHODS FOR INCREASING BLOOD FLOW AND/OR PROMOTING TISSUE REGENERATION” (priority 2006, published 2010)", "key": {"CFU-GM progenitor cells": {"test_system": "CFU-GM progenitor cells", "details": "donors' mean, s.c. 80 μg/kg", "method": "(§1) All progenitor cell results are based on the scoring of 3 culture plates per assay per point.\n(§2) For the progenitor cell numbers and cycling status, the numbers of CFU-GM, BFU-E and CFU-GEMM in methylcellulose cultures by stimulation of the cells with 1 Unit (U)/ml recombinant human (rhu) erythropoietin, 100 U/ml rhu granulocyte-macrophage colony stimulating factor (GM-CSF), 100 U/ml rhu interleukin-3 (IL-3) and 50 ng/ml rhu steel factor (SLF=stem cell factor (SCF)). The CFU-GM were also evaluated in agar cultures stimulated with 100 U/ml rhu GM-CSF and 50 ng/ml rhu SLF. For both types of assays, colonies were scored after 14 day incubation in a humidified atmosphere with 5% CO2 and lowered (5%) O2 tension. Cell cycling status of progenitors was measured using a high specific activity tritiated thymidine kill technique as previously described (Broxmeyer, H. E., et al., Exp. Hematol. (1989) 17:455-459)."}, "[1]": {"test_system": "CFU-GM, BFU-E and CFU-GEMM progenitor cells", "details": "s.c. 80 μg/kg; for mean fold change vs T=0, methylcellulose culture BFU-E, MEAN / mean fold change vs T=0, methylcellulose culture CFU-GEMM, MEAN / mean fold change vs T=0, methylcellulose culture CFU-GM, MEAN / methylcellulose culture BFU-E, % CHG / methylcellulose culture CFU-GEMM, % CHG / methylcellulose culture CFU-GM, % CHG: 5 donors", "method": "as §1, §2"}}, "note": "Where two headings read alike, the source gives them in different places.", "data": [{"molecule": "c1cc(CN2CCCNCCNCCCNCC2)ccc1CN1CCCNCCNCCCNCC1", "note": "[AMD3100, 1,1′-[1,4-phenylene-bis(methylene)]-bis-1,4,8,11-tetraazacyclotetradecane]", "values": [{"measurement": "agar culture CFU-GM, % CHG", "setting": "CFU-GM progenitor cells; T = 1 hour", "result": 180.8, "unit": "%"}, {"measurement": "mean fold change vs T=0, agar culture CFU-GM, MEAN", "setting": "CFU-GM progenitor cells; T = 1 hour", "result": 2.81}, {"measurement": "agar culture CFU-GM, % CHG", "setting": "CFU-GM progenitor cells; T = 3 hours", "result": 754.1, "unit": "%"}, {"measurement": "mean fold change vs T=0, agar culture CFU-GM, MEAN", "setting": "CFU-GM progenitor cells; T = 3 hours", "result": 8.54}, {"measurement": "agar culture CFU-GM, % CHG", "setting": "CFU-GM progenitor cells; T = 6 hours", "result": 1692.8, "unit": "%"}, {"measurement": "mean fold change vs T=0, agar culture CFU-GM, MEAN", "setting": "CFU-GM progenitor cells; T = 6 hours", "result": 17.93}, {"measurement": "agar culture CFU-GM, % CHG", "setting": "CFU-GM progenitor cells; T = 9 hours", "result": 924.9, "unit": "%"}, {"measurement": "mean fold change vs T=0, agar culture CFU-GM, MEAN", "setting": "CFU-GM progenitor cells; T = 9 hours", "result": 10.25}, {"measurement": "agar culture CFU-GM, % CHG", "setting": "CFU-GM progenitor cells; T = 24 hours", "result": 108.3, "unit": "%"}, {"measurement": "mean fold change vs T=0, agar culture CFU-GM, MEAN", "setting": "CFU-GM progenitor cells; T = 24 hours", "result": 2.08}, {"measurement": "mean fold change vs T=0, methylcellulose culture BFU-E, MEAN", "setting": "[1]; T = 1 hour", "result": 1.99}, {"measurement": "mean fold change vs T=0, methylcellulose culture CFU-GEMM, MEAN", "setting": "[1]; T = 1 hour", "result": 2.32}, {"measurement": "mean fold change vs T=0, methylcellulose culture CFU-GM, MEAN", "setting": "[1]; T = 1 hour", "result": 4.77}, {"measurement": "methylcellulose culture BFU-E, % CHG", "setting": "[1]; T = 1 hour", "result": 98.9, "unit": "%"}, {"measurement": "methylcellulose culture CFU-GEMM, % CHG", "setting": "[1]; T = 1 hour", "result": 131.8, "unit": "%"}, {"measurement": "methylcellulose culture CFU-GM, % CHG", "setting": "[1]; T = 1 hour", "result": 376.7, "unit": "%"}, {"measurement": "mean fold change vs T=0, methylcellulose culture BFU-E, MEAN", "setting": "[1]; T = 3 hours", "result": 3.21}, {"measurement": "mean fold change vs T=0, methylcellulose culture CFU-GEMM, MEAN", "setting": "[1]; T = 3 hours", "result": 4.33}, {"measurement": "mean fold change vs T=0, methylcellulose culture CFU-GM, MEAN", "setting": "[1]; T = 3 hours", "result": 13.66}, {"measurement": "methylcellulose culture BFU-E, % CHG", "setting": "[1]; T = 3 hours", "result": 221.3, "unit": "%"}, {"measurement": "methylcellulose culture CFU-GEMM, % CHG", "setting": "[1]; T = 3 hours", "result": 332.5, "unit": "%"}, {"measurement": "methylcellulose culture CFU-GM, % CHG", "setting": "[1]; T = 3 hours", "result": 1266.5, "unit": "%"}, {"measurement": "mean fold change vs T=0, methylcellulose culture BFU-E, MEAN", "setting": "[1]; T = 6 hours", "result": 6.01}, {"measurement": "mean fold change vs T=0, methylcellulose culture CFU-GEMM, MEAN", "setting": "[1]; T = 6 hours", "result": 10.07}, {"measurement": "mean fold change vs T=0, methylcellulose culture CFU-GM, MEAN", "setting": "[1]; T = 6 hours", "result": 21.71}, {"measurement": "methylcellulose culture BFU-E, % CHG", "setting": "[1]; T = 6 hours", "result": 500.5, "unit": "%"}, {"measurement": "methylcellulose culture CFU-GEMM, % CHG", "setting": "[1]; T = 6 hours", "result": 907.2, "unit": "%"}, {"measurement": "methylcellulose culture CFU-GM, % CHG", "setting": "[1]; T = 6 hours", "result": 2070.6, "unit": "%"}, {"measurement": "mean fold change vs T=0, methylcellulose culture BFU-E, MEAN", "setting": "[1]; T = 9 hours", "result": 4.34}, {"measurement": "mean fold change vs T=0, methylcellulose culture CFU-GEMM, MEAN", "setting": "[1]; T = 9 hours", "result": 5.25}, {"measurement": "mean fold change vs T=0, methylcellulose culture CFU-GM, MEAN", "setting": "[1]; T = 9 hours", "result": 10.47}, {"measurement": "methylcellulose culture BFU-E, % CHG", "setting": "[1]; T = 9 hours", "result": 334.4, "unit": "%"}, {"measurement": "methylcellulose culture CFU-GEMM, % CHG", "setting": "[1]; T = 9 hours", "result": 425.4, "unit": "%"}, {"measurement": "methylcellulose culture CFU-GM, % CHG", "setting": "[1]; T = 9 hours", "result": 947.3, "unit": "%"}, {"measurement": "mean fold change vs T=0, methylcellulose culture BFU-E, MEAN", "setting": "[1]; T = 24 hours", "result": 1.26}, {"measurement": "mean fold change vs T=0, methylcellulose culture CFU-GEMM, MEAN", "setting": "[1]; T = 24 hours", "result": 1.53}, {"measurement": "mean fold change vs T=0, methylcellulose culture CFU-GM, MEAN", "setting": "[1]; T = 24 hours", "result": 1.56}, {"measurement": "methylcellulose culture BFU-E, % CHG", "setting": "[1]; T = 24 hours", "result": 26.3, "unit": "%"}, {"measurement": "methylcellulose culture CFU-GEMM, % CHG", "setting": "[1]; T = 24 hours", "result": 53.2, "unit": "%"}, {"measurement": "methylcellulose culture CFU-GM, % CHG", "setting": "[1]; T = 24 hours", "result": 55.5, "unit": "%"}, {"measurement": "time after injection of maximal fold increases in circulating levels of progenitor cells", "setting": "[1]; all five human donors", "result": 6, "unit": "h"}]}]}
